# Test system: panel of 484 cancer cell lines
# Experiment: PRISM cancer cell line profiling, 5 days
# Type: cell-based
# Set-up: AUC: unit not given beside the values
# Description: Cancer cell line profiling was performed using the Broad’s PRISM platform. Cell treatment and data analysis were performed as described in Yu et al[42]. Raw Luminex signal was converted to AUC values for each cell line as described. The resulting AUC profile for each compound was modeled against DepMap using the limma package in R[71]. Because hotspot mutation analysis was performed against DepMap, TP53 annotations in Fig. 6c,d are directly from DepMap.
compound,measurement,setting,value
CN1CCN(CCC(=O)Nc2ccc3c(=O)n(CC4(O)CCN(C(=O)[C@@H](CCCNC(=O)c5ccc6c(Cl)c7c(nc6c5)CCCC7)Cc5ccccc5)CC4)cnc3c2)CC1 [XL177A],AUC,RVH421_SKIN,0.7933
same,AUC,S117_SOFT_TISSUE,0.8952
same,AUC,SBC5_LUNG,1.121
same,AUC,SCABER_URINARY_TRACT,0.8461
same,AUC,SCC25_UPPER_AERODIGESTIVE_TRACT,0.7649
same,AUC,SF126_CENTRAL_NERVOUS_SYSTEM,1.059
same,AUC,SF295_CENTRAL_NERVOUS_SYSTEM,1.367
same,AUC,SF539_CENTRAL_NERVOUS_SYSTEM,0.7901
same,AUC,SH4_SKIN,0.8355
same,AUC,SH10TC_STOMACH,0.9409
same,AUC,SIMA_AUTONOMIC_GANGLIA,1.153
same,AUC,SJSA1_BONE,0.9454
same,AUC,SKES1_BONE,1.123
same,AUC,SKHEP1_LIVER,1.003
same,AUC,SKLU1_LUNG,1.145
same,AUC,SKMEL2_SKIN,1.16
same,AUC,SKMEL3_SKIN,1.119
same,AUC,SKMEL5_SKIN,1.147
same,AUC,SKMEL24_SKIN,1.297
same,AUC,SKMEL30_SKIN,0.992
same,AUC,SKMES1_LUNG,0.9519
same,AUC,SKNAS_AUTONOMIC_GANGLIA,1.0969
same,AUC,SKNBE2_AUTONOMIC_GANGLIA,1.099
same,AUC,SKOV3_OVARY,0.9025
same,AUC,SKUT1_SOFT_TISSUE,1.15
same,AUC,SNB75_CENTRAL_NERVOUS_SYSTEM,0.9344
same,AUC,SNGM_ENDOMETRIUM,1.144
same,AUC,SNU46_UPPER_AERODIGESTIVE_TRACT,1.075
same,AUC,SNU61_LARGE_INTESTINE,1.293
same,AUC,SNU81_LARGE_INTESTINE,1.343
same,AUC,SNU213_PANCREAS,0.7501
same,AUC,SNU245_BILIARY_TRACT,1.4902
same,AUC,SNU308_BILIARY_TRACT,1.159
same,AUC,SNU398_LIVER,0.9557
same,AUC,SNU407_LARGE_INTESTINE,0.9921
same,AUC,SNU410_PANCREAS,1.104
same,AUC,SNU423_LIVER,0.9049
same,AUC,SNU449_LIVER,1.072
same,AUC,SNU466_CENTRAL_NERVOUS_SYSTEM,0.6104
same,AUC,SNU601_STOMACH,1.062
same,AUC,SNU668_STOMACH,0.8134
same,AUC,SNU685_ENDOMETRIUM,0.8198
same,AUC,SNU719_STOMACH,0.6005
same,AUC,SNU738_CENTRAL_NERVOUS_SYSTEM,0.9451
same,AUC,SNU761_LIVER,1.358
same,AUC,SNU840_OVARY,0.9553
same,AUC,SNU869_BILIARY_TRACT,1.237
same,AUC,SNU886_LIVER,1.085
same,AUC,SNU1041_UPPER_AERODIGESTIVE_TRACT,1.036
same,AUC,SNU1066_UPPER_AERODIGESTIVE_TRACT,1.434
same,AUC,SNU1076_UPPER_AERODIGESTIVE_TRACT,1.032
same,AUC,SNU1077_ENDOMETRIUM,1.075
same,AUC,SNU1079_BILIARY_TRACT,1.101
same,AUC,SNU1105_CENTRAL_NERVOUS_SYSTEM,1.015
same,AUC,SNU1196_BILIARY_TRACT,1.095
same,AUC,SNU1214_UPPER_AERODIGESTIVE_TRACT,0.7181
same,AUC,SNUC2A_LARGE_INTESTINE,1.088
same,AUC,SNUC4_LARGE_INTESTINE,1.036
same,AUC,SNUC5_LARGE_INTESTINE,1.147
same,AUC,SQ1_LUNG,0.9875
same,AUC,SUIT2_PANCREAS,0.9816
same,AUC,SW480_LARGE_INTESTINE,1.095
same,AUC,SW579_THYROID,0.8837
same,AUC,SW620_LARGE_INTESTINE,1.161
same,AUC,SW780_URINARY_TRACT,0.8743
same,AUC,SW837_LARGE_INTESTINE,1.139
same,AUC,SW900_LUNG,1.083
same,AUC,SW948_LARGE_INTESTINE,1.148
same,AUC,SW1088_CENTRAL_NERVOUS_SYSTEM,1.163
same,AUC,SW1271_LUNG,1.0015
same,AUC,SW1353_BONE,0.7826
same,AUC,SW1573_LUNG,1.097
same,AUC,SW1710_URINARY_TRACT,0.9553
same,AUC,SW1990_PANCREAS,0.9791
same,AUC,T3M10_LUNG,1.003
same,AUC,T24_URINARY_TRACT,1.033
same,AUC,T47D_BREAST,1.05
same,AUC,T98G_CENTRAL_NERVOUS_SYSTEM,0.9138
same,AUC,TCCPAN2_PANCREAS,1.167
same,AUC,TCCSUP_URINARY_TRACT,1.301
same,AUC,TE1_OESOPHAGUS,1.2696
same,AUC,TE4_OESOPHAGUS,1.044
same,AUC,TE5_OESOPHAGUS,0.9519
same,AUC,TE6_OESOPHAGUS,0.8165
same,AUC,TE8_OESOPHAGUS,1.003
same,AUC,TE9_OESOPHAGUS,1.141
same,AUC,TE10_OESOPHAGUS,0.9335
same,AUC,TE11_OESOPHAGUS,1.05
same,AUC,TEN_ENDOMETRIUM,0.8216
same,AUC,TM31_CENTRAL_NERVOUS_SYSTEM,1.2102
same,AUC,TM87_SOFT_TISSUE,1.188
same,AUC,TOV21G_OVARY,0.5189
same,AUC,TOV112D_OVARY,1.085
same,mean diff. between TP53 functional WT and functional mutant populations (AUC),TP53 annotation by functional scores of Giacomelli et al.,0.072 ± 0.016
same,AUC,TT2609C02_THYROID,0.9464
same,AUC,TT_OESOPHAGUS,1.06
same,AUC,TT_THYROID,0.8609
same,AUC,TUHR4TKB_KIDNEY,1.102
same,AUC,U2OS_BONE,1.296
same,AUC,U118MG_CENTRAL_NERVOUS_SYSTEM,1.069
same,AUC,U251MG_CENTRAL_NERVOUS_SYSTEM,0.9403
same,AUC,UACC62_SKIN,0.9957
same,AUC,UACC257_SKIN,0.801
same,AUC,UBLC1_URINARY_TRACT,0.854
same,AUC,UMUC1_URINARY_TRACT,0.8933
same,AUC,UO31_KIDNEY,1.106
same,AUC,VMCUB1_URINARY_TRACT,0.9786
same,AUC,VMRCRCW_KIDNEY,1.013
same,AUC,VMRCRCZ_KIDNEY,1.099
same,AUC,WM88_SKIN,1.176
same,AUC,WM793_SKIN,1.125
same,AUC,WM983B_SKIN,1.093
same,AUC,WM1799_SKIN,0.5219
same,AUC,WM2664_SKIN,0.9262
same,AUC,YAPC_PANCREAS,1.218
same,AUC,YD8_UPPER_AERODIGESTIVE_TRACT,0.881
same,AUC,YD10B_UPPER_AERODIGESTIVE_TRACT,0.9499
same,AUC,YD15_SALIVARY_GLAND,0.7713
same,AUC,YD38_UPPER_AERODIGESTIVE_TRACT,0.8781
same,AUC,YH13_CENTRAL_NERVOUS_SYSTEM,0.9484
same,AUC,YKG1_CENTRAL_NERVOUS_SYSTEM,0.9563
same,AUC,ZR751_BREAST,0.7595

# Reference: PMC7093416, “Selective USP7 inhibition elicits cancer cell killing through a p53-dependent mechanism” (Scientific Reports, 2020)
